This experiment relates to SW948. Put plainly: Potency index, ratio of TM GI50 to compound GI50 for growth inhibition of human SW948 cells. Format: functional.

SMILES strings stand for the structures.

Consider `CCCCCCCCCCNC(=S)NCCCC[C@H](NC(=O)OCc1ccccc1)C(=O)Nc1ccccc1`, for which the RatioGI50 is 2.

The record behind these values is ChEMBL document CHEMBL4433206, “Novel Lysine-Based Thioureas as Mechanism-Based Inhibitors of Sirtuin 2 (SIRT2) with Anticancer Activity in a Colorectal Cancer Murine Model” (J Med Chem, 2019).
